# According to article PMC10223019, “Preclinical Evaluation of a PSMA-Targeting Homodimer with an Optimized Linker for Imaging of Prostate Cancer” (Molecules, 2023):
# Values joined by “and” are separate entries in the source; they are usually repeats but may differ in a detail not shown here. Equal entries are not always repeated.
# Legend:
# [1] = Stability in mouse serum, radio-HPLC; type: in vitro ADME; settings: 24 h post-incubation, 37 °C, indium-111 labeled, intact fraction
# Protocol: [^111In]In-22 or [^111In]In-30 (~35 MBq, 70 µL) was mixed with 330 μL of mouse serum and incubated at 37 °C for up to 24 h. After 1, 4, and 24 h incubation, 50 μL of the mouse serum solution was added to a separate vial containing 50 µL of acetonitrile. The sample was centrifuged at 5000× g for 20 min. The supernatant was analyzed by radio-HPLC.
# [2] = tested on: BALB/c nude mice bearing LS174T PSMA-positive tumor xenografts; experiment: Ex vivo biodistribution studies; type: in vivo
# Protocol: Animal experiments were performed in 8–10 weeks old male BALB/c nude mice (Janvier Labs, Le Genest-Saint-Isle, France). Animals were housed in individually ventilated cages (Blue line IVC, 4 mice per cage) under nonsterile standard conditions with cage enrichment present and free access to chlorophyll-free animal chow (Sniff GmbH, Soest, Germany) and water and acclimated for 1 week before experiments. Mice were subcutaneously inoculated with 4.0 × 10^6 LS174T cells in the right flank, diluted in 100 μL of cell suspension. Seven days after tumor cell inoculation, when xenografts were approximately 0.2–0.3 cm^3, the tracers were injected intravenously via the tail vein. All experiments were approved by the institutional Animal Welfare Committee and were conducted in accordance with the guidelines of the Revised Dutch Act on Animal Experimentation (WOD).
# Mice were intravenously injected with ~1 nmol of either [^111In]In-PSMA-617, [^111In]In-22 or [^111In]In-30 with molar activity of 5 MBq/nmol for ex vivo biodistribution studies. Mice (n = 4/timepoint) were euthanized by cervical dislocation at 1, 4, and 24 h p.i. A block group was included, and mice were euthanized at 4 h p.i. Organs were collected in tubes and counted in the gamma counter, where the calibration factor was determined by measuring different known activities of indium-111.
# [3] = LogD7.4 by shake-flask method (PBS/n-octanol); type: physicochemical; settings: LogD7.4, PBS pH 7.4/n-octanol, indium-111 labeled compound
# Protocol: The distribution coefficients (LogD7.4 values) were determined by a shake-flask method, in which 2 μL (~0.5 MBq) of the labeling solution ([^111In]In-22 or [^111In]In-30) were added to an Eppendorf tube containing 1 mL of PBS (0.01 M, pH 7.4)/n-octanol (v/v, 1:1). After vigorous vortexing, the solution was centrifuged at 2500× g for 15 min for phase separation. Samples (3 × 10 μL) of the two phases were taken out and measured in a gamma counter. LogD7.4 values were calculated by using the following equation: LogD7.4 = log [(counts in octanol phase)/(counts in aqueous phase)] and the experiment was performed in triplicate.
# [4] = tested on: PSMA expressing LS174T cells; experiment: Internalization and cell uptake assay; type: cell-based, human; settings: 2 h 37 °C
# Protocol: LS174T human colon carcinoma cells transfected with human PSMA were obtained from Dr. Sandra Heskamp (Radboud UMC, Nijmegen). Cells were cultured in RPMI-1640 media supplemented with 2 mM glutamine, 10% fetal bovine serum (FBS) and 0.3 mg/mL G418 (Geneticin, Sigma Aldrich, St. Louis, MO, USA).
# Cells were seeded (1.2 × 10^6 cells/well) and cultured to confluency for 24 h prior to experiments. We prepared 10^−9 M solutions of [^111In]In-PSMA-617, [^111In]In-22, and [^111In]In-30 in internalization media (RPMI, 20 mM HEPES, 1% BSA, pH 7.4). The media were removed from each well, and they were rinsed twice with PBS at rt. 2 mL of the radioactive compound was then added to each well and incubated at 37 °C for 2 h. For the internalization assay, the media containing radioactive compound were removed, and each well was washed twice with cold PBS. A total of 1 mL of Glycine buffer (50 mM glycine, 100 mM NaCl, pH 2.8) was added immediately and incubated for 10 min at rt. The glycine wash was then collected into counting tubes (membrane-bound fraction). An extra wash was performed and collected in the same tubes. A total of 1 mL of NaOH (1 M) was then added to each tube and left for 15 min at rt. The lysate (internalized fraction) was then collected in separate counting tubes, together with one extra NaOH wash. Data were normalized to 1,000,000 cells and percentage added dose.
# [5] = Stability in phosphate-buffered saline (PBS), radio-HPLC; type: physicochemical; settings: 24 h post-incubation, 37 °C, indium-111 labeled, intact fraction
# Protocol: [^111In]In-22 or [^111In]In-30 (~10 MBq, 20 µL) was mixed with 80 μL of PBS (0.01 M, pH 7.4) and incubated at 37 °C for up to 24 h. A sample of the PBS solution was loaded directly onto the radio-HPLC at 1, 4, and 24 h post-incubation.
# [6] = 4 h p.i. block group (excess unlabeled PSMA ligand)
smiles,measurement,setting,value
CC(C)CC(NC(=O)C(Cc1ccccc1)NC(=O)C(CC(=O)O)NC(=O)CCCCCSC1=NNC(SCCCCCC(=O)NC(CC(=O)O)C(=O)NC(Cc2ccccc2)C(=O)NC(CC(C)C)C(O)CC(=O)NCCCCCC(=O)NCCCCC(NC(=O)NC(CCC(=O)O)C(=O)O)C(=O)O)=C2CCC(OC(=O)NCCCNC(=O)CN3CCN(CC(=O)[O-])CCN(CC(=O)[O-])CCN(CC(=O)[O-])CC3)CCCC12)C(O)CC(=O)NCCCCCC(=O)NCCCCC(NC(=O)NC(CCC(=O)O)C(=O)O)C(=O)O.[111In+3] (stereo not drawn) [[^111In]In-30],Stability in Mouse Serum (%),[1],90.1%
same,Blood uptake,"[2]; 1 h p.i., i.v. ~1 nmol",4.84 ± 1.44 % ID/g
same,Bone uptake,"[2]; 1 h p.i., i.v. ~1 nmol",3.00 ± 0.53 % ID/g
same,Heart uptake,"[2]; 1 h p.i., i.v. ~1 nmol",2.58 ± 0.79 % ID/g
same,Intestines uptake,"[2]; 1 h p.i., i.v. ~1 nmol",0.87 ± 0.08 % ID/g
same,Kidney uptake,"[2]; 1 h p.i., i.v. ~1 nmol",138.54 ± 1.44 % ID/g
same,Liver uptake,"[2]; 1 h p.i., i.v. ~1 nmol",3.94 ± 0.26 % ID/g
same,Lung uptake,"[2]; 1 h p.i., i.v. ~1 nmol",2.81 ± 0.36 % ID/g
same,Muscle uptake,"[2]; 1 h p.i., i.v. ~1 nmol",1.13 ± 0.22 % ID/g
same,Pancreas uptake,"[2]; 1 h p.i., i.v. ~1 nmol",1.47 ± 0.33 % ID/g
same,Prostate uptake,"[2]; 1 h p.i., i.v. ~1 nmol",3.53 ± 2.05 % ID/g
same,Skin uptake,"[2]; 1 h p.i., i.v. ~1 nmol",4.44 ± 1.06 % ID/g
same,Spleen uptake,"[2]; 1 h p.i., i.v. ~1 nmol",3.30 ± 0.59 % ID/g
same,Stomach uptake,"[2]; 1 h p.i., i.v. ~1 nmol",0.47 ± 0.34 % ID/g
same,Tumor uptake,"[2]; 1 h p.i., i.v. ~1 nmol",4.95 ± 1.01 % ID/g
same,Blood uptake,[2]; [6],0.78 ± 0.04 % ID/g
same,Bone uptake,[2]; [6],1.27 ± 0.23 % ID/g
same,Heart uptake,[2]; [6],0.82 ± 0.10 % ID/g
same,Intestines uptake,[2]; [6],0.48 ± 0.03 % ID/g
same,Kidney uptake,[2]; [6],120.93 ± 4.75 % ID/g
same,Liver uptake,[2]; [6],1.84 ± 0.07 % ID/g
same,Lung uptake,[2]; [6],0.84 ± 0.07 % ID/g
same,Muscle uptake,[2]; [6],0.47 ± 0.08 % ID/g
same,Pancreas uptake,[2]; [6],0.54 ± 0.07 % ID/g
same,Prostate uptake,[2]; [6],0.94 ± 0.30 % ID/g
same,Skin uptake,[2]; [6],1.42 ± 0.18 % ID/g
same,Spleen uptake,[2]; [6],1.20 ± 0.14 % ID/g
same,Stomach uptake,[2]; [6],0.33 ± 0.12 % ID/g
same,Tumor uptake,[2]; [6],1.42 ± 0.14 % ID/g
same,Blood uptake,"[2]; 4 h p.i., i.v. ~1 nmol",1.02 ± 0.29 % ID/g
same,Bone uptake,"[2]; 4 h p.i., i.v. ~1 nmol",1.44 ± 0.54 % ID/g
same,Heart uptake,"[2]; 4 h p.i., i.v. ~1 nmol",0.96 ± 0.22 % ID/g
same,Intestines uptake,"[2]; 4 h p.i., i.v. ~1 nmol",0.92 ± 0.58 % ID/g
same,Kidney uptake,"[2]; 4 h p.i., i.v. ~1 nmol",132.89 ± 11.12 % ID/g
same,Liver uptake,"[2]; 4 h p.i., i.v. ~1 nmol",2.41 ± 0.35 % ID/g
same,Lung uptake,"[2]; 4 h p.i., i.v. ~1 nmol",0.77 ± 0.52 % ID/g
same,Muscle uptake,"[2]; 4 h p.i., i.v. ~1 nmol",0.64 ± 0.30 % ID/g
same,Pancreas uptake,"[2]; 4 h p.i., i.v. ~1 nmol",0.66 ± 0.24 % ID/g
same,Prostate uptake,"[2]; 4 h p.i., i.v. ~1 nmol",1.27 ± 0.69 % ID/g
same,Skin uptake,"[2]; 4 h p.i., i.v. ~1 nmol",1.92 ± 0.49 % ID/g
same,Spleen uptake,"[2]; 4 h p.i., i.v. ~1 nmol",1.40 ± 0.20 % ID/g
same,Stomach uptake,"[2]; 4 h p.i., i.v. ~1 nmol",0.31 ± 0.08 % ID/g
same,Tumor uptake,"[2]; 4 h p.i., i.v. ~1 nmol",2.94 ± 0.36 % ID/g
same,Tumor-to-muscle (T/M) ratio,[2]; 24 h p.i.,15
same,Blood uptake,"[2]; 24 h p.i., i.v. ~1 nmol",0.09 ± 0.01 % ID/g
same,Bone uptake,"[2]; 24 h p.i., i.v. ~1 nmol",0.60 ± 0.04 % ID/g
same,Heart uptake,"[2]; 24 h p.i., i.v. ~1 nmol",0.21 ± 0.01 % ID/g
same,Intestines uptake,"[2]; 24 h p.i., i.v. ~1 nmol",0.19 ± 0.06 % ID/g
same,Kidney uptake,"[2]; 24 h p.i., i.v. ~1 nmol",26.86 ± 2.37 % ID/g
same,Liver uptake,"[2]; 24 h p.i., i.v. ~1 nmol",0.80 ± 0.04 % ID/g
same,Lung uptake,"[2]; 24 h p.i., i.v. ~1 nmol",0.28 ± 0.03 % ID/g
same,Muscle uptake,"[2]; 24 h p.i., i.v. ~1 nmol",0.15 ± 0.03 % ID/g
same,Pancreas uptake,"[2]; 24 h p.i., i.v. ~1 nmol",0.17 ± 0.00 % ID/g
same,Prostate uptake,"[2]; 24 h p.i., i.v. ~1 nmol",0.40 ± 0.10 % ID/g
same,Skin uptake,"[2]; 24 h p.i., i.v. ~1 nmol",0.77 ± 0.13 % ID/g
same,Spleen uptake,"[2]; 24 h p.i., i.v. ~1 nmol",0.58 ± 0.04 % ID/g
same,Stomach uptake,"[2]; 24 h p.i., i.v. ~1 nmol",0.11 ± 0.07 % ID/g
same,Tumor uptake,"[2]; 24 h p.i., i.v. ~1 nmol",1.57 ± 0.17 % ID/g
same,Tumor-to-muscle (T/M) ratio,[2]; at 1 and 4 h p.i.,4–5
same,logD,[3],−2.44 ± 0.07
same,Internalized fraction,"[4]; 10^-9 M, NaOH lysate",3.51 ± 0.68 % AD
same,Membrane-bound uptake,"[4]; 10^-9 M, glycine wash",0.26 ± 0.09 % AD
same,Total uptake,"[4]; 10^-9 M, normalized to 1,000,000 cells",3.79 ± 0.74 % AD
same,Internalized fraction as share of total uptake (internalization),[4],92% and 92.6%
same,Membrane-bound uptake as share of total uptake,[4],7.4%
same,Stability in PBS (%),[5],90.8%
